# Measurements: patent US7858621B2 (Amorepacific Corporation, priority 2006, dated 2010)
# Target: T1, vanilloid receptor (Rattus norvegicus, UniProt O35433)
# T1 construct: DRG nerve cells from the primary culture of 2 days were equilibrated; endogenous in cells; host or cells: primary culture of dorsal root ganglion neurons from neonatal SD rats
# Assay: 45Ca influx test in cultured neonatal rat DRG neurons, inhibition of capsaicin response
# Assay type: cell-based
# Settings: neonatal rat DRG neurons, capsaicin 0.5 μM, 45Ca influx; read-out: Antagonist Calcium Uptake Test (IC50)
# Outline: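 Neonatal SD rat DRG neurons, cultured 2 days with NGF (200 ng/ml) and Ara-C, were washed in HEPES (10 mM, pH 7.4)-buffered Ca/Mg-free HBSS. Test compound was added with capsaicin (final 0.5 μM) and 45Ca (10 μCi/ml) for 10 min at room temperature; 45Ca uptake counted by scintillation after SDS elution.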
# T1 sequence (O35433 whole entry): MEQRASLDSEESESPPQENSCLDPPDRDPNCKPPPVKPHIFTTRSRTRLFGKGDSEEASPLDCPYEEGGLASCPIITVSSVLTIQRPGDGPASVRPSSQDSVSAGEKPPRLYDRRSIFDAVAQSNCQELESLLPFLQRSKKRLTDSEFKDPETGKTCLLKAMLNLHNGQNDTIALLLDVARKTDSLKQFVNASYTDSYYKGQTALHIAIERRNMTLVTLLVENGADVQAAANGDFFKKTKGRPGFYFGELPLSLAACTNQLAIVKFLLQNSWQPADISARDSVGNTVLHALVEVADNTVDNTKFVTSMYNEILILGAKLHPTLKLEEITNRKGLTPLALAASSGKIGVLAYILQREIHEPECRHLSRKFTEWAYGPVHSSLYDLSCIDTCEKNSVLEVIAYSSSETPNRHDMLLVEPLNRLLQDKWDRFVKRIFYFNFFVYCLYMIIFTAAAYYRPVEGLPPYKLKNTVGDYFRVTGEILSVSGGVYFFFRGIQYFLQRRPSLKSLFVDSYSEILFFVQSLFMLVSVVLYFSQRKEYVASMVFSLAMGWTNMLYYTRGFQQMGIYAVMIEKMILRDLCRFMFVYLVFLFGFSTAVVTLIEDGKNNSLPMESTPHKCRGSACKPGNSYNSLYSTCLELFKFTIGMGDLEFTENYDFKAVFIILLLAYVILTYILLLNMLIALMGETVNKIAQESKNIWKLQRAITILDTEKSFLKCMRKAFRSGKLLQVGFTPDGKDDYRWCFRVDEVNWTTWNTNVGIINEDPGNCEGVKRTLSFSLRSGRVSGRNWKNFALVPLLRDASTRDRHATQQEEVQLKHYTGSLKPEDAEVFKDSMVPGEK
row,Structure (SMILES),IC50 [nM]
1,"CS(=O)(=O)Nc1c(F)cc(CNC(=O)/C=C/c2ccc(C(F)(F)F)nc2CCc2ccccc2)cc1C(F)(F)F [Example 189, N-(3-Fluoro-4-methanesulfonylamino-5-trifluoromethyl-benzyl)-3-(2-phenethyl-6-trifluoromethyl-pyridin-3-yl)-acrylamide]",400
2,C#Cc1cc(CNC(=O)/C=C/c2ccc(C(F)(F)F)nc2C#CCN(CC)CC)cc(F)c1NS(C)(=O)=O [Example 190],2300
3,"Cc1cc(CNC(=O)/C=C/c2ccc(C(F)(F)F)nc2NCc2ccccc2)ccc1NS(C)(=O)=O [Example 191, 3-(2-Benzylamino-6-trifluoromethyl-pyridin-3-yl)-N-(4-methanesulfonylamino-3-methyl-benzyl)-acrylamide]",220
4,"CCCCc1nc(C(F)(F)F)ccc1/C=C/C(=O)NCc1cc(C)c(NS(C)(=O)=O)c(F)c1 [Example 192, 3-(2-Butyl-6-trifluoromethyl-pyridin-3-yl)-N-(3-fluoro-4-methanesulfonylamino-5-methyl-benzyl)-acrylamide]",90
5,"CCCCc1nc(C(F)(F)F)ccc1/C=C/C(=O)N[C@H](C)c1ccc(NS(C)(=O)=O)c(F)c1 [Example 193, (R)-3-(2-Butyl-6-trifluoromethyl-pyridin-3-yl)-N-[1-(3-fluoro-4-methanesulfonylamino-phenyl)-ethyl]-acrylamide]",42
6,"CCCCc1nc(C(F)(F)F)ccc1/C=C/C(=O)NCc1ccc(NS(C)(=O)=O)c(C)c1 [Example 194, 3-(2-Butyl-6-trifluoromethyl-pyridin-3-yl)-N-(4-methanesulfonylamino-3-methyl-benzyl)-acrylamide]",76
7,"C[C@@H](NC(=O)/C=C/c1ccc(C(F)(F)F)nc1NCc1ccccc1)c1ccc(NS(C)(=O)=O)c(F)c1 [Example 195, (R)-3-(2-Benzylamino-6-trifluoromethyl-pyridin-3-yl)-N-[1-(3-fluoro-4-methanesulfonylamino-phenyl)-ethyl]-acrylamide]",67
8,"C#Cc1cc(CNC(=O)/C=C/c2ccc(C(F)(F)F)nc2NCc2ccccc2)cc(F)c1NS(C)(=O)=O [Example 196, 3-(2-Benzylamino-6-trifluoromethyl-pyridin-3-yl)-N-(3-ethynyl-5-fluoro-4-methanesulfonylamino-benzyl)-acrylamide]",76
9,"C#Cc1cc(CNC(=O)/C=C/c2ccc(C(F)(F)F)nc2CCCCC)cc(F)c1NS(C)(=O)=O [Example 197, N-(3-Ethynyl-5-fluoro-4-methanesulfonylamino-benzyl)-3-(2-pentyl-6-trifluoromethyl)-pyridin-3-yl-acrylamide]",65
10,"CCCCCc1nc(C(F)(F)F)ccc1/C=C/C(=O)NCc1ccc(NS(C)(=O)=O)c(C)c1 [Example 198, N-(4-Methanesulfonylamino-3-methyl-benzyl)-3-(2-pentyl-6-trifluoromethyl)-pyridin-3-yl-acrylamide]",54
11,"CCCCCc1nc(C(F)(F)F)ccc1/C=C/C(=O)NCc1cc(F)c(NS(C)(=O)=O)c(F)c1 [Example 199, N-(3,5-Difluoro-4-methanesulfonylamino-benzyl)-3-(2-pentyl-6-trifluoromethyl)-pyridin-3-yl-acrylamide]",92
12,"CS(=O)(=O)Nc1c(F)cc(CNC(=O)/C=C/c2ccc(C(F)(F)F)nc2N2CCCCC2)cc1F [Example 200, N-(4-Methanesulfonylamino-3,5-difluoro-benzyl)-3-(2-piperid-1-yl-6-trifluoromethyl-pyridin-3-yl)-acrylamide]",580
13,"CS(=O)(=O)Nc1c(F)cc(CNC(=O)/C=C/c2ccc(C(F)(F)F)nc2-c2cccc(F)c2)cc1F [Example 201, N-(4-Methanesulfonylamino-3,5-difluoro-benzyl)-3-[2-(3-fluoro-phenyl)-6-trifluoromethyl-pyridin-3-yl]-acrylamide]",420
14,"CCCCNc1nc(C(F)(F)F)ccc1/C=C/C(=O)NCc1cc(F)c(NS(C)(=O)=O)c(F)c1 [Example 202, N-(3,5-Difluoro-4-methanesulfonylamino-benzyl)-3-(2-butylamino-6-trifluoromethyl)-pyridin-3-yl-acrylamide]",35
